From patent US20260297042A1, “BIARYLAMIDE DERIVATIVES AND THEIR USE AS PKMYT1 INHIBITORS” (CANCER RESEARCH TECHNOLOGY LIMITED, priority 2023, published 2026)
Counter-ions that a name gives are not always drawn.

How the values were obtained:
[1] = target: T1, Human PKMYT1 (Homo sapiens, UniProt Q99640); assay: PKMYT1 biochemical ADP-Glo enzymatic assay; details: ADP-Glo
T1 construct: Human PKMYT1 75-362 was cloned as a TEV cleavable 6xHis fusion; 6xHis (TEV cleavable) (cleaved yes); made in house; host or cells: bacterial cells
T1 sequence (Q99640 75-362): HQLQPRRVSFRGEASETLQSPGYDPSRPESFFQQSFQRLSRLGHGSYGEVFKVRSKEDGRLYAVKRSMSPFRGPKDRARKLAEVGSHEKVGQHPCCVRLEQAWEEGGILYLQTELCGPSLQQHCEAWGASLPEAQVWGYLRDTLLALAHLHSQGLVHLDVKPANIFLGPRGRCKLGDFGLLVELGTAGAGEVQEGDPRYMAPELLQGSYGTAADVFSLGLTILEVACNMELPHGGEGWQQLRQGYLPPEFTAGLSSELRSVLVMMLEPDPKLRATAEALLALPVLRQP
Description: Human PKMYT1 75-362 was cloned as a TEV cleavable 6xHis fusion in bacterial cells. After purification on a Ni++HiTrap Chelating HP column, the His-tag was cleaved using TEV protease. Cleaved PKMYT1 was further purified on a Superdex 200 16/600 sizing column. The fractions containing PKMYT1 were pooled and concentrated using an ultrafiltration centrifugal protein concentrator. The purified protein was aliquoted, flash frozen in liquid nitrogen, and stored at −80° C.
PKMYT1 biochemical assay: Inhibition of PKMYT1 was assessed using the ADP-Glo™ Max Detection System from Promega. This assay detects the production of ADP from ATP by PKMYT1 via a two-step process ultimately involving the conversion of ADP to ATP with the latter converted to light in a coupled reaction with luciferase/luciferin. Inhibition of PKMYT1 by small molecule inhibitors results in a retardation of luminescence above background. The intrinsic ATPase activity of PKMYT1 was assessed according to the following protocol. Compounds were dosed into Corning white low volume 384 well assay plates using an Echo acoustic dispenser to generate 10-point curves spanning a 3-fold dilution series. DMSO (no inhibitor) control wells were prepared to benchmark the maximum and minimum signals in the presence and absence of PKMYT1, respectively. The PKMYT1 kinase domain was purified in-house, as described above, and added to the wells at a final concentration of 15 nM in a buffer of 50 mM HEPES (pH 7.5), 10 mM MgCl2, 1 mM EGTA, 0.01% Brij-35, 1% DMSO. 500 µM ATP was added to start the reaction with the final assay volume being 4 μl. The plate was then incubated for 60 minutes at 26° C. before the addition of 4 μl of ADP-Glo Reagent to stop the reaction and deplete the unconsumed ATP. Following a further 60 minute incubation the assay signal was developed by the addition of 8 μl ADP-Glo Max Detection Reagent. After 60 minutes the luminescence signal was read on a PHERAStar FS microplate reader (BMG Labtech).
(§1) Data analysis: Data was captured and analysed within the Dotmatics Studies software module where dose response curves were generated and IC50 values determined. Acceptance and verification of data followed strict in-house business rules which are summarised as follows. […] Technical and biological replicates of each compound are routinely tested and replicate IC50 values must fall within 3-fold of each other with dose response curves showing ‘goodness of fit’ r2 values >0.9. Failure to meet any of these defined criteria result in rejection of data.

[2] = target: T2, WEE1 (Homo sapiens, UniProt P30291); assay: Selectivity versus WEE1 assay (ADP-Glo enzymatic assay); type: biochemical; details: for IC50: ADP-Glo; for PKMYT1 vs. WEE1 selectivity: fold difference in selectivity for PKMYT1 over WEE1
T2 construct: purchased Thermo Fisher PR7373A
Description: Selectivity versus WEE1 assay: Selectivity was established using the same format as outlined for PKMYT1. After dosing of compounds via the Echo acoustic dispenser—as described above—WEE1 (Thermo Fisher PR7373A) was added to each well at a final concentration of 15 nM in a buffer of 50 mM HEPES (pH 7.5), 10 mM MgCl2, 1 mM EGTA, 0.01% Brij-35, 1% DMSO. 30 µM ATP was added to start the reaction with the final assay volume being 4 μl. The plate was then incubated for 60 minutes at 26° C. before the addition of 4 μl of ADP-Glo Reagent. Following a further 60 minute incubation the assay signal was developed by the addition of 8 μl ADP-Glo Detection Reagent. After 60 minutes the luminescence signal was read on a PHERAStar FS microplate reader (BMG Labtech).
as §1

[3] = 15 nM PKMYT1 kinase domain, 500 µM ATP, 60 minutes at 26° C., banded
[4] = 15 nM WEE1, 60 minutes at 26° C., banded
[5] = banded, ">N" = at least in this band but could be higher
[6] = PKMYT1 kinase domain 15 nM, banded values

T2 sequence (P30291 whole entry): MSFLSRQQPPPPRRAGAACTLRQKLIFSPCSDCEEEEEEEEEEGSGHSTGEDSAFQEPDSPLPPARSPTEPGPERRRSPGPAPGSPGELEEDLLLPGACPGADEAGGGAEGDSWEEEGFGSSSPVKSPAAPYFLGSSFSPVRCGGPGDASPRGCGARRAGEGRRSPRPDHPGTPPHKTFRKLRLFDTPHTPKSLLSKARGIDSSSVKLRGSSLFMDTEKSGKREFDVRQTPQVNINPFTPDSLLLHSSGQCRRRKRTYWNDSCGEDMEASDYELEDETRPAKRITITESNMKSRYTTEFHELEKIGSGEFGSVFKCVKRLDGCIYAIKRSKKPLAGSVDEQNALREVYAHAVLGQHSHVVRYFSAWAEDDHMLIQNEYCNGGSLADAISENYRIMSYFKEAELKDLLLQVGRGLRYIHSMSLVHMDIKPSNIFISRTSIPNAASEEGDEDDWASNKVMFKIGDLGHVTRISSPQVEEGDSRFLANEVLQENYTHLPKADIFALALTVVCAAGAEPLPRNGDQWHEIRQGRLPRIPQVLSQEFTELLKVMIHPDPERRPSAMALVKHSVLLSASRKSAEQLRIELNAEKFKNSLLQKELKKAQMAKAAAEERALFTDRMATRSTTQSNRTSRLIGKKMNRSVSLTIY

Row | Structure (SMILES) | IC50 [1, 3] [nM] | IC50 [2, 4] [nM] | PKMYT1 vs. WEE1 selectivity [2, 5] | IC50 [1, 6] [nM] | IC50 ([2]; WEE1 15 nM, banded values) [nM] | PKMYT1 vs. WEE1 selectivity ([2]; banded)
1 | Cc1ccc(O)c(C)c1NC(=O)c1cnc(Nc2ccn([C@@H]3CCN(C(=O)C(C)(C)c4ccccc4)C3)n2)s1 [BAA-094] | 50 to 1000 | > 11000 | >X (100-<1000 fold) |  |  | 
2 | Cc1cncc(Nc2ncc(C(=O)Nc3c(C)ccc(O)c3C)s2)n1 [BAA-570, N-(3-hydroxy-2,6-dimethylphenyl)-2-((6-methylpyrazin-2-yl)amino)thiazole-5-carboxamide] |  |  |  | < 50 | > 11000 | X (100-<1000 fold)
3 | Cc1ccc(O)c(C)c1NC(=O)c1cnc(Nc2cccc3c2OCCO3)s1 [BAA-529, 2-((2,3-dihydrobenzo[b][1,4]dioxin-5-yl)amino)-N-(3-hydroxy-2,6-dimethylphenyl)thiazole-5-carboxamide. TFA salt] |  |  |  | 50 to 1000 | > 11000 | X (100-<1000 fold)
4 | Cc1ccc(O)c(C)c1NC(=O)c1cnc(Nc2nc(C)c(C)s2)s1 [BAA-266, 2-((4,5-dimethylthiazol-2-yl)amino)-N-(3-hydroxy-2,6-dimethylphenyl)thiazole-5-carboxamide] | 50 to 1000 | > 11000 | X (100-<1000 fold) |  |  | 
5 | Cc1cc(Nc2ncc(C(=O)Nc3c(C)ccc(O)c3C)s2)n(C)n1 [BAA-127, 2-[(2,5-dimethylpyrazol-3-yl)amino]-N-(3-hydroxy-2,6-dimethyl-phenyl)thiazole-5-carboxamide] | < 50 | > 11000 | Y (1000-5000 fold) |  |  | 
6 | Cc1ccc(O)c(C)c1NC(=O)c1cnc(NCCCN2CCS(=O)(=O)CC2)s1 [BAA-072, 2-[3-(1,1-dioxo-1,4-thiazinan-4-yl)propylamino]-N-(3-hydroxy-2,6-dimethyl-phenyl)thiazole-5-carboxamide] | 50 to 1000 | > 11000 | >X (100-<1000 fold) |  |  | 
7 | Cc1ccc(O)c(C)c1NC(=O)c1cnc(Nc2ccn(C)n2)o1 [BAA-462, N-(3-Hydroxy-2,6-dimethylphenyl)-2-((1-methyl-1H-pyrazol-3-yl)amino) oxazole-5-carboxamide] |  |  |  | 50 to 1000 | > 11000 | X (100-<1000 fold)
8 | COc1ccccc1Nc1ncc(C(=O)Nc2c(C)ccc(O)c2C)s1 [BAA-528, N-(3-hydroxy-2,6-dimethylphenyl)-2-((2-methoxyphenyl)amino)thiazole-5-carboxamide. TFA salt] |  |  |  | 50 to 1000 | > 11000 | X (100-<1000 fold)
9 | Cc1ccc(O)c(C)c1NC(=O)c1cnc(Nc2sccc2C(N)=O)s1 [BAA-021, 2-[(3-carbamoyl-2-thienyl)amino]-N-(3-hydroxy-2,6-dimethyl-phenyl)thiazole-5-carboxamide] | 50 to 1000 | > 11000 | >X (100-<1000 fold) |  |  | 
10 | CCNC(=O)Cn1ccc(Nc2ncc(C(=O)Nc3c(C)ccc(O)c3C)s2)n1 [BAA-188] | < 50 | > 11000 | Y (1000-5000 fold) |  |  | 
11 | Cc1cc(Nc2ncc(C(=O)Nc3c(C)ccc(O)c3C)s2)n(CC(C)C)n1 [BAA-238, N-(3-hydroxy-2,6-dimethylphenyl)-2-((1-isobutyl-3-methyl-1H-pyrazol-5-yl)amino)thiazole-5-carboxamide] | < 50 | > 11000 | Y (1000-5000 fold) |  |  | 
12 | Cc1ccc(O)c(C)c1NC(=O)c1cnc(Nc2ccccc2C2CC2)s1 [BAA-526, 2-((2-cyclopropylphenyl)amino)-N-(3-hydroxy-2,6-dimethylphenyl)thiazole-5-carboxamide] |  |  |  | 50 to 1000 | > 11000 | X (100-<1000 fold)
13 | Cc1ccc(O)c(C)c1NC(=O)c1cnc(Nc2ccn(C(F)F)n2)s1 [BAA-025, 2-[[1-(difluoromethyl)pyrazol-3-yl]amino]-N-(3-hydroxy-2,6-dimethyl-phenyl)thiazole-5-carboxamide] | 50 to 1000 | > 11000 | X (100-<1000 fold) |  |  | 
14 | Cc1ccc(O)c(C)c1NC(=O)c1cnc(Nc2ncc(F)cc2Cl)s1 [BAA-404, 2-((3-chloro-5-fluoropyridin-2-yl)amino)-N-(3-hydroxy-2,6-dimethylphenyl)thiazole-5-carboxamide] |  |  |  | < 50 | > 11000 | Y (1000-5000 fold)
15 | Cc1ccc(O)c(C)c1NC(=O)c1cnc(NCc2cc3ccccc3[nH]2)s1 [BAA-357, 2-(((1H-indol-2-yl)methyl)amino)-N-(3-hydroxy-2,6-dimethylphenyl)thiazole-5-carboxamide] | 50 to 1000 | > 11000 | X (100-<1000 fold) |  |  | 
16 | Cc1ccc(O)c(C)c1NC(=O)c1cnc(Nc2nc(C)c(-c3cc(F)cc(F)c3)c(C)n2)s1 [BAA-301, 2-((5-(3,5-difluorophenyl)-4,6-dimethylpyrimidin-2-yl)amino)-N-(3-hydroxy-2,6-dimethylphenyl)thiazole-5-carboxamide] | 50 to 1000 | > 11000 | X (100-<1000 fold) |  |  | 
17 | Cc1ccc(O)c(C)c1NC(=O)c1cnc(Nc2cc(C(=O)N(C)C)n(C)n2)s1 [BAA-120, 2-[[5-(dimethylcarbamoyl)-1-methyl-pyrazol-3-yl]amino]-N-(3-hydroxy-2,6-dimethyl-phenyl)thiazole-5-carboxamide] | 50 to 1000 | 1000 to 11000 | X (100-<1000 fold) |  |  | 
18 | Cc1ccc(O)c(C)c1NC(=O)c1cnc(Nc2nc(C(F)(F)F)cs2)s1 [BAA-017] | 50 to 1000 | > 11000 | >X (100-<1000 fold) |  |  | 
19 | Cc1ccc(O)c(C)c1NC(=O)c1cnc(Nc2ccn(CC(=O)N3CCC[C@H](O)C3)n2)s1 [BAA-163] | < 50 | > 11000 | Y (1000-5000 fold) |  |  | 
20 | Cc1ccc(O)c(C)c1NC(=O)c1cnc(Nc2cccc3scnc23)s1 [BAA-486, 2-(benzo[d]thiazol-4-ylamino)-N-(3-hydroxy-2,6-dimethylphenyl)thiazole-5-carboxamide] |  |  |  | 50 to 1000 | > 11000 | X (100-<1000 fold)
21 | CCCNC(=O)Cn1ccc(Nc2ncc(C(=O)Nc3c(C)ccc(O)c3C)s2)n1 [BAA-197] | < 50 | > 11000 | Y (1000-5000 fold) |  |  | 
22 | Cc1ccc(O)c(C)c1NC(=O)c1cnc(Nc2ccn([C@@H]3CCN(C(=O)Cc4ccc(N)cc4)C3)n2)s1 [BAA-106, 2-[[1-[(3R)-1-[2-(4-Aminophenyl)acetyl]pyrrolidin-3-yl]pyrazol-3-yl]amino]-N-(3-hydroxy-2,6-dimethyl-phenyl)thiazole-5-carboxamide] | < 50 | > 11000 | >Y (1000-5000 fold) |  |  | 
23 | Cc1ccc(O)c(Br)c1NC(=O)c1cnc(Nc2ccn(C)n2)s1 [BAA-468, N-(2-bromo-3-hydroxy-6-methyl-phenyl)-2-[(1-methylpyrazol-3-yl)amino]thiazole-5-carboxamide] |  |  |  | < 50 | 1000 to 11000 | X (100-<1000 fold)
